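GI50 = concentration required for 50% inhibition of growth. Definition used: TGI = concentration required for complete inhibition of growth.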
Key:
Experiment in all cases: growth of human tumour cells (NCI), 384-well format
PC-3 prostate = system: PC-3 prostate
MCF7 breast = system: MCF7 breast
RXF 393 renal = system: RXF 393 renal
SK-MEL-2 melanoma = system: SK-MEL-2 melanoma
OVCAR-8 ovarian = system: OVCAR-8 ovarian
OVCAR-5 ovarian = system: OVCAR-5 ovarian
SF-295 CNS = system: SF-295 CNS
MOLT-4 leukemia = system: MOLT-4 leukemia
UACC-62 melanoma = system: UACC-62 melanoma
HOP-92 NSCLC = system: HOP-92 NSCLC
SK-MEL-5 melanoma = system: SK-MEL-5 melanoma
HL-60(TB) leukemia = system: HL-60(TB) leukemia
MDA-MB-231 breast = system: MDA-MB-231 breast

SMILES: CC1(N)CCN(c2cccnc2NC(=O)c2nc(-c3ncccc3C(F)(F)F)cnc2N)CC1
- GI50 (PC-3 prostate): 16.7 µM
- TGI (PC-3 prostate): 57 µM
- GI50 (MCF7 breast): 24.6 µM
- TGI (MCF7 breast): > 54.9 µM
- GI50 (RXF 393 renal): 12.5 µM
- TGI (RXF 393 renal): 25.5 µM
- GI50 (SK-MEL-2 melanoma): 18.4 µM
- TGI (SK-MEL-2 melanoma): 47.2 µM
- GI50 (OVCAR-8 ovarian): 30.9 µM
- TGI (OVCAR-8 ovarian): > 70.5 µM
- GI50 (OVCAR-5 ovarian): 16.8 µM
- TGI (OVCAR-5 ovarian): 48.1 µM
- GI50 (SF-295 CNS): > 49.3 µM
- TGI (SF-295 CNS): > 72.6 µM
- GI50 (MOLT-4 leukemia): 12.8 µM
- TGI (MOLT-4 leukemia): 25.6 µM
- GI50 (UACC-62 melanoma): 19.4 µM
- TGI (UACC-62 melanoma): > 53.4 µM
- GI50 (HOP-92 NSCLC): 20.4 µM
- TGI (HOP-92 NSCLC): 57.6 µM
- GI50 (SK-MEL-5 melanoma): 18.2 µM
- TGI (SK-MEL-5 melanoma): 34.3 µM
- GI50 (HL-60(TB) leukemia): 7.32 µM
- TGI (HL-60(TB) leukemia): 18 µM
- GI50 (MDA-MB-231 breast): 20.5 µM
- TGI (MDA-MB-231 breast): 46.9 µM
